Assay results: patent US9359373B1, “Lipophilic N-substituted norcantharimide derivatives and uses thereof” (priority 2014, dated 2016)
Like-named read-outs stand apart in the source and are kept apart here.

Key:
HT29 = assay: MTT cell viability, HT29; assay type: cell-based, human; settings: Mean ± SD, read-out: Growth Inhibition IC50 HT-29
Protocol: (§1) Cell lines used in the present disclosure include human liver carcinonoma cell line HepG2, human bladder carcinoma cell line BFTC905, human colon carcinoma cell lines HT29 and SW480, and human leukemia cell lines HL60 and Jurkat T, and mouse lymphocytic leukemia cell line L1210. Each cell lines were cultured and maintained in Dulbecco's modified Eagle media (DMEM) or RPMI 1640 medium supplemented with 10% heat inactivated fetal bovine serum (FBS), 1% penicillin/streptomycin, in 5% CO2195% air at 37° C.
(§2) The absorbance of the solution at 540 nm was measured by spectrophotometer. The IC50 values were defined as the drug concentration that inhibit 50% cell growth by setting the viability of untreated cells as 100%. Values were represented as the mean±SD from at least 3 independent experiments.
(§3) Effects of the compounds of formula (I) of this disclosure, specifically, NOC15 and NC 15, on HepG2 cells (liver carcinoma), BFTC905 (bladder carcinoma), HT29 (colon carcinoma), SW480 (colon carcinoma) and HL60 (leukemia) were assessed by cell viability analysis in accordance with procedures described above, in which compound 2, and other known anti-cancer agents including 5-FU, cisplatin and doxorubicin were respectively used as positive controls.

SW480 = assay: MTT cell viability, SW480; assay type: cell-based, human; settings: Mean ± SD, read-out: Growth Inhibition IC50 SW480
Protocol: as §1, §2, §3

HL60 = assay: MTT cell viability, HL60; assay type: cell-based, human; settings: for IC50: MTT, 48 hours, Mean ± SD, read-out: Growth Inhibition IC50 HL-60; for response of leukemia cell line HL60 to treatment: in words, from Table 1
Protocol: as §1, §2, §3

HepG2 cells [1] = assay: MTT cell viability, HepG2; assay type: cell-based, human
Protocol: as §1, §2, §3
In this example, effects of NOC15 or NC15 on HepG2 cells were assessed by cell viability analysis in accordance with procedures described above, in which compound 2 was used as a positive control.

HepG2 cells [2] = assay: Hoechst 33528 staining, nuclear morphological changes; assay type: cell-based, human; settings: 40 μM, 48 hours, FIG. 1
Protocol: Staining with Hoechst 33528 was performed according to the method described previously (Huang et al., Cytotechnology 2009, 59, 201-208). Briefly, cells were treated with 40 μM norcantharidin, NOC15, or NC15 for 48 hours, then washed with PBS saline and stained with Hoechst 33528 (Sigma, St. Louis, Mo., USA) at a final concentration of 10 μg/mL. The slides were examined under a fluorescence microscope. Cells with a small nucleus, a high fluorescence intensity (due to chromatin condensation) or nuclear fragmentation were considered apoptotic.
To further investigate the role of apoptosis in the cytotoxicity of NOC15 and NC15, HepG2 cells were incubated with compound 2, NOC15 and NC15, respectively, for 48 hours; then were stained with Hoechst 33528 and examined by fluorescence microscope for any topical morphological changes.

[3] = test system: human lymphoblast cells (NHL); assay: Cell viability (CCK-8), normal lymphoblast cells; assay type: cell-based; settings: 24 hours (NC15: 24 and 48 hours), FIG. 4, FIG. 6
Protocol: (§4) The cell viability assays were performed in 96-well plates. The 100 μl of cell suspensions (NHL or Jurkat T cells, 5×10^3 cells/well, serum-free medium) were inoculated in the wells and the plates were pre-incubated in the incubator for 24 hours (pre-incubated for 22 hours and stimulated with PMA 5 ng/ml plus ionomycin 250 ng/ml for 2 hours in PMAI-treated groups). Then, various concentrations of norcantharidin (0, 2, 4, 15, 30 and 60 μM) or NOC15 (0, 0.25, 0.5, 1, 2 and 4 μM) were added into the culture media in the wells. After 24 hours of incubation, the cell viability of NHL and Jurkat T cells was measured by cell counting kit-8 (CCK-8, Sigma). The half maximal inhibitory concentrations (IC50) of norcantharidin and NOC15 on Jurkat T cells and NHL cells were calculated.
(§5) In this example, a model of phorbol 12-myristate 13-acetate plus ionomycin (PMAI) activated leukemia Jurkat T cells model was employed to investigate the effects of the NOC15 on human leukemia cells (Jurkat T cells) and human lymphoblast cells (NHL).

[4] = test system: human leukemia cells (Jurkat T cells); assay: Cell viability (CCK-8), PMAI activated leukemia Jurkat T cells model; assay type: cell-based
Protocol: as §4, §5

BFTC905 = assay: MTT cell viability, BFTC905; assay type: cell-based, human; settings: Mean ± SD, read-out: Growth Inhibition IC50 BFTC905
Protocol: as §1, §2, §3

HepG2 cells [5] = assay: Cell cycle distribution by flow cytometry (PI), HepG2; assay type: cell-based, human; settings: 48 hours, FIG. 2
Protocol: (§6) Cultured cells with or without pre-treatment of the compounds of this invention (i.e., norcantharidin, NOC15, or NC15, 10-60 μM for 48 hours) were harvested from the cultured media and fixed by incuating with 75% iced cold ehtanol and kept at −20° C. until analysis. The fixed cells were then washed with PBS, and treated with […] (200 μg/mL, 500 μL) for about 1.5 hour at 37° C. Precipitated cells were collected by centrifugation and re-suspended in a buffer solution containing propidium iodine (PI) (40 μg/ml) and incubated in the dark for 20 min at 20-25° C. before being subject to flow cytometry analysis, where cell numbers at respective cell cycles were determined.
(§7) HepG2 cells were treated with 10-60 μM of the test compounds for 48 hours, then cell cycle distribution and apoptosis analysis was analyzed by flow cytometry, with the subG1 phase being stained with propidium idoine (PI). Results are illustrated in FIGS. 2 and 3.

HepG2 cells [6] = assay: Apoptotic analysis annexin-V/PI flow cytometry; assay type: cell-based, human; settings: 10-60 μM, 48 hours, FIG. 3
Protocol: The percentage of apototic cells was determined according to the manufacturer's protocol by using an annexin-V/FITC kit/propidium iodine (PI) flow cytometer. To facilitate the detection of apoptosis, the treated cells were centrifuged for 5 min at a speed of 1,000×g at room temperature, and then resuspended and washed once with 5 mL PBS before being stained with annexin-V/PI (apoptosis detection kit, R&D Systems, Taipei, Taiwan).
as §7

[7] = Body weight of treated animals; assay type: in vivo, mice; settings: 18 mg/Kg, compared with healthy normal control, FIG. 11
Protocol: (§8) To inoculate tumor, L1210 cells (1×10^6 cells per injection) were injected either subcutaneously or intraperitoneally to lab animals to generate tumors on day 1. After 7 days, NOC15 or NC15 (diluted in normal saline) was administered intra-peritoneally at a dose of 18 mg/kg every day for 7 days. The average body weight (BW) of the animals was measured daily.
(§9) Mice were inoculated with L1210 tumor cells in accordance with the procedures described in the section of “Materials and Methods.” For in vivo therapy, animals were given 18 mg/Kg NOC15 or NC15 by intra-peritoneal route, for a period of at least 7 days. Tumor size, animal body weight, respective weights of liver and spleen, as well as the white blood cell count of each animal were then measured respectively at the indicated time. Results are depicted in FIGS. 8 to 11, respectively.

Jurkat T cells = assay: Cell cycle distribution by flow cytometry, Jurkat T cells; assay type: cell-based, human; settings: for percentage of cells in subG1 phase: FIG. 5, FIG. 7
Protocol: as §6
Cell cycle distribution was determined by flow cytometry as described in the “Materials and Methods” section. Results is depicted in FIG. 5.
In this example, Jurkat T cells were treated with or without NC15 (2.513 μM) for 24 or 48 hours before being subject to cell cycle analysis. Results are depicted in FIG. 7.

L1210 cells = assay: Syngeneic L1210 tumor in vivo therapy; set-up: species or system DBA/2 mice
Protocol: The DBA/2 mice (about 7 weeks old, 18-22 g) were obtained from BioLASCO Taiwan Co., Ltd. All mice were housed in specific pathogen-free condition with ad libitum access to water and laboratory chow. A solution of L1210 cells was injected into the subcutaneous tissue to establish a syngeneic tumor. Alternatively, the L1210 cells was injected peritoneally. All animal experiments were performed in accordance with the guidelines of the Animal Welfare Committee of Taipei Veterans General Hospital (Taiwan, R.O.C.).
as §8
After treatment, mice were sacrificed, and their tumors, livers and spleens were harvested and weighted, respectively; and white blood cells (WBC) counts were also measured.
as §9

normal hepatic cells = assay: Ex vivo growth of normal hepatic cells; assay type: cell-based; settings: at about 8.2 μM
[8] = MTT, 48 hours, Mean ± SD, read-out: Growth Inhibition IC50 HepG2
[9] = Homo sapiens, BFTC-905, 48 hours
[10] = Homo sapiens, HepG2, 24 h, Mean ± SD, read-out: Growth Inhibition On Hepatic Cancer Cells IC50 24 hrs
[11] = Homo sapiens, HepG2, 48 h, MTT, 48 hours, Mean ± SD, read-out: Growth Inhibition IC50 HepG2
[12] = Homo sapiens, HepG2, 48 h, Mean ± SD, read-out: Growth Inhibition On Hepatic Cancer Cells IC50 48 hrs
[13] = Homo sapiens, HepG2, 72 h, Mean ± SD, read-out: Growth Inhibition On Hepatic Cancer Cells IC50 72 hrs

Compound: N.N.[Cl][Pt][Cl] [Cisplatin, cisplatin]
- IC50 (HT29; 48 hours): 24.1 ± 0.1 µM
- IC50 (SW480; 48 hours): 40.7 ± 1.2 µM
- IC50 (HL60): > 100 µM
- response of leukemia cell line HL60 to treatment (HL60): did not respond well
- IC50 (HepG2 cells [1]; [8]): 36.1 ± 3.1 µM

Compound: O=C1OC(=O)C2C3CCC(O3)C12 (stereo not drawn) [Compound 2, 7-oxabicyclo[2.2.1]heptane-2,3-dicarboxylic anhydride, reference compound]
- nuclear morphological changes (apoptosis features) (HepG2 cells [2]): Significant morphological features of apotosis
- IC50 (HT29; Homo sapiens, HT-29, 48 hours): 19.5 ± 0.2 µM
- cytotoxicity to normal lymphatic/lymphoblast cells (NHL) [3]: did not possess significant cytotoxicity
- cytotoxicity to leukemia Jurkat T cells ([4]; 24 hours (NC15: 24 and 48 hours), FIG. 4, FIG. 6): toxic
- percentage of viable cells if pre-treated with PMA ([4]; PMA plus ionomycin pre-treatment, FIG. 4): increased slightly
- IC50 (BFTC905; [9]): 18.9 ± 0.3 µM
- IC50 (SW480; Homo sapiens, SW480, 48 hours): 49.1 ± 8.4 µM
- IC50 (HL60; Homo sapiens, HL-60): > 100 µM
- fraction of apoptotic cells (subG1) (HepG2 cells [5]; 10 μM): only a small fraction of apoptotic cells
- fraction of apoptotic cells (subG1) (HepG2 cells [5]; 20 μM): 1.6%
- fraction of apoptotic cells (subG1) (HepG2 cells [5]; 60 μM): 16.7%
- percentage of apoptotic cells / cell death (HepG2 cells [6]): cytoxic effect was only observed when high concentration of compound 2 was used
- IC50 (HepG2 cells [1]; [10]): 48 ± 0.7 µM
- IC50 (HepG2 cells [1]; [11]): 42 ± 1.8 µM
- IC50 (HepG2 cells [1]; [12]): 42 ± 1.8 µM
- IC50 (HepG2 cells [1]; [13]): 22.8 ± 0.6 µM

Compound: O=c1[nH]cc(F)c(=O)[nH]1 [Compound 5-FU, 5-FU]
- IC50 (HT29; 48 hours): > 100 µM
- IC50 (BFTC905; 48 hours): > 100 µM
- IC50 (SW480; 48 hours): 32.7 ± 8.3 µM
- IC50 (HL60): > 100 µM
- response of leukemia cell line HL60 to treatment (HL60): did not respond well
- IC50 (HepG2 cells [1]; [8]): 40.2 ± 7.6 µM

Compound: CC(C)=CCCC(C)=CCCC(C)=CCON1C(=O)C2C3CCC(O3)C2C1=O (stereo not drawn) [Compound 9, N-farnesyloxy-7-oxabicyclo[2.2.1]heptane-2,3-dicarboximide]
- total body weight along the course of treatment [7]: gradually improved the total body weight
- percentage of cells in subG1 phase (Jurkat T cells; treated 24 hours (NC15 2.513 μM)): increased
- percentage of cells in subG1 phase (Jurkat T cells; treated 48 hours (NC15 2.513 μM)): increased
- percentage of cells in G2/M phase (Jurkat T cells; treated 48 hours, FIG. 5C): increased
- weight of liver (L1210 cells; IP-inoculated tumor, 18 mg/kg i.p., FIG. 9B): improved significantly
- weight of spleen (L1210 cells; IP-inoculated tumor, 18 mg/kg i.p., FIG. 9C): improved significantly
- increase in life span (L1210 cells; SC-inoculated tumors, 18 mg/kg i.p. daily, FIG. 8A): about 40%
- weight of s.c. tumor (L1210 cells; SC-inoculated, 18 mg/kg i.p., FIG. 9A): Significant reduction
- white blood cell (WBC) counts (L1210 cells; day 14, SC- or IP-injected L1210, 18 mg/kg i.p., FIG. 10): significant reductions
- nuclear morphological changes (apoptosis features) (HepG2 cells [2]): Significant morphological features of apotosis
- IC50 (HT29; Homo sapiens, HT-29, 48 hours): 9.7 ± 1.7 µM
- IC50 (BFTC905; [9]): 11.3 ± 1 µM
- effect on normal hepatic cells (normal hepatic cells): un-affected
- IC50 (SW480; Homo sapiens, SW480, 48 hours): 18.5 ± 2.3 µM
- IC50 (HL60; Homo sapiens, HL-60): 39 ± 1.1 µM
- response of leukemia cell line HL60 to treatment (HL60): did respond
- accumulation of cells in G2/M phase (HepG2 cells [5]; 10-60 μM): inducing the accumulation of cells in G2/M phase
- percentage of apoptotic cells / cell death (HepG2 cells [6]): dose-dependent
- IC50 (HepG2 cells [1]; [10]): 10.7 ± 0.2 µM
- IC50 (HepG2 cells [1]; [11]): 8.3 ± 1.3 µM
- IC50 (HepG2 cells [1]; [12]): 8.3 ± 1.3 µM
- IC50 (HepG2 cells [1]; [13]): 8.2 ± 0.6 µM
- IC50 (HepG2 cells [1]; Homo sapiens, HepG2, hepatic cancerous cells, time not given, read-out: concentration inhibiting ex vivo growth of hepatic cancerous cells for about 50%): ~8.2 µM

Compound: COc1cccc2c1C(=O)c1c(O)c3c(c(O)c1C2=O)C[C@@](O)(C(=O)CO)C[C@@H]3O[C@H]1C[C@H](N)[C@H](O)[C@H](C)O1 [Doxorubicin, doxorubicin]
- IC50 (HT29; Homo sapiens, HT-29, 48 hours): 1.7 ± 0.2 µM
- IC50 (SW480; Homo sapiens, SW480, 48 hours): 0.5 ± 0.1 µM
- IC50 (HL60; Homo sapiens, HL-60): 14.3 ± 0.9 µM
- IC50 (HepG2 cells [1]; [11]): 0.3 µM
